# Experimental data as given in US6867320B2, “Substituted phenylalkanoic acid derivatives and use thereof” (Asahi Kasei Pharma Corporation, priority 2002, dated 2005).
# Test system: PGE2 production from IL-1β-stimulated MG-63 cells
# Experiment: Suppressing action on PGE2 production from IL-1β-stimulated MG-63 cells
# Format: cell-based
# Details: Homo sapiens, IL-1β 1 ng/ml, 18 hours, read-out: PGE2 production suppression ratio
# Description: 1. Suppressing Action on PGE2 Production from IL-1β-Stimulated MG-63 Cells (1) Method for Measurement
# An action of suppressing PGE2 production caused by interleukin (IL) 1β as an inflammatory stimulant was studied by the following method. Cells of MG-63, which is a human osteosarcoma cell line (purchased from Dainippon Pharmaceutical), were suspended in EMEM medium (GIBCO) containing 10% fetal bovine serum (BioFluid), and then inoculated to each well of 96-well culture plate at a density of 2×10^4 cells/well and cultured overnight. The medium was changed to EMEM medium containing 0.5% fetal bovine serum, and then a test compound was added with each well. Human interleukin-1β (ENDOGEN) was further added as an inflammatory stimulant at a final concentration of 1 ng/ml. The cells were further cultured for 18 hours. The culture supernatant was collected, and the PGE2 concentration in the culture supernatant was measured by using EIA kit (CAYMAN). By using a well which was not added with the stimulant as a negative control and a well which was added only with the stimulant as a positive control, suppression ratios on PGE2 production were calculated from produced amounts of PGE2 in the well added with the test compound using the following equation. PGE2 production suppression ratio=[1−(C−B)/(A−B)]×100 • A: PGE2 production amount of positive control • B: PGE2 production amount of negative control • C: PGE2 production amount in well added with test compound
row,Compound,inhibition at 0.4 µM [%]
1,"O=C(O)CCc1ccc(OCC2CCCC2)c(-c2ccc3ccc(O)cc3c2)c1 [Compound 008, 3-[4-cyclopentylmethyloxy-3-(7-hydroxynaphthalen-2-yl)-phenyl]propionic acid]",≥ 50
2,"CN(C)c1ccc2cc(-c3cc(CCC(=O)O)ccc3OCC3CCCC3)ccc2c1 [Compound 018, 3-{4-cyclopentylmethyloxy-3-[6-(N,N-dimethylamino)naphthalen-2-yl]phenyl}propionic acid]",≥ 50
3,"NS(=O)(=O)Nc1ccc2cc(-c3cc(CCC(=O)O)ccc3OCC3CCCC3)ccc2c1 [Compound 020, 3-[4-cyclopentylmethyloxy-3-(6-sulfamoylaminonaphthalen-2-yl)phenyl]propionic acid]",≥ 50
4,"CS(=O)(=O)c1ccc2cc(-c3cc(CCC(=O)O)ccc3OCC3CCCC3)ccc2c1 [Compound 022, 3-[4-cyclopentylmethyloxy-3-(6-methanesulfonylnaphthalen-2-yl)phenyl]propionic acid]",≥ 50
5,"NS(=O)(=O)c1ccc2cc(-c3cc(CCC(=O)O)ccc3OCC3CCCC3)ccc2c1 [Compound 024, 3-[4-cyclopentylmethyloxy-3-(6-sulfamoylnaphthalen-2-yl)phenyl]propionic acid]",≥ 50
6,"CNS(=O)(=O)c1ccc2cc(-c3cc(CCC(=O)O)ccc3OCC3CCCC3)ccc2c1 [Compound 026, 3-{4-cyclopentylmethyloxy-3-[6-(N-methylsulfamoyl)naphthalen-2-yl]phenyl}propionic acid]",≥ 50
7,"CN(C)S(=O)(=O)c1ccc2cc(-c3cc(CCC(=O)O)ccc3OCC3CCCC3)ccc2c1 [Compound 028, 3-{4-cyclopentylmethyloxy-3-[6-(N,N-dimethylsulfamoyl)naphthalen-2-yl]phenyl}propionic acid]",≥ 50
8,"O=C(O)CCc1ccc(OCC2CCCCC2)c(-c2ccc3cc(C(=O)O)ccc3c2)c1 [Compound 029, 3-[3-(6-carboxynaphthalen-2-yl)-4-cyclohexylmethyloxyphenyl]propionic acid]",≥ 50
9,"CCCCOc1ccc(CCC(=O)O)cc1-c1ccc2ccccc2c1 [Compound 037, 3-[4-butyloxy-3-(naphthalen-2-yl)phenyl]propionic acid]",≥ 50
10,"CC(C)Oc1ccc(CCC(=O)O)cc1-c1ccc2ccccc2c1 [Compound 041, 3-[4-isopropyloxy-3-(naphthalen-2-yl)phenyl]propionic acid]",≥ 50
11,"O=C(O)CCc1ccc(OCCC2CCCCC2)c(-c2ccc3ccccc3c2)c1 [Compound 049, 3-[4-(2-cyclohexylethyloxy)-3-(naphthalen-2-yl)phenyl]propionic acid]",≥ 50
12,"O=C(O)CCc1ccc(OCc2ccco2)c(-c2ccc3ccccc3c2)c1 [Compound 058, 3-{4-[(furan-2-yl)methyloxy]-3-(naphthalen-2-yl)phenyl}propionic acid]",≥ 50
13,"O=C(O)CCc1ccc(OCc2cccnc2)c(-c2ccc3ccccc3c2)c1 [Compound 060, 3-{3-(naphthalen-2-yl)-4-[(pyridin-3-yl)methyloxy]phenyl}propionic acid]",≥ 50
14,"CCc1ccc(CCOc2ccc(CCC(=O)O)cc2-c2ccc3ccccc3c2)nc1 [Compound 062, 3-{4-[2-(5-ethylpyridin-2-yl)ethyloxy]-3-(naphthalen-2-yl)phenyl}propionic acid]",≥ 50
15,"Cc1oc(-c2ccccc2)nc1CCOc1ccc(CCC(=O)O)cc1-c1ccc2ccccc2c1 [Compound 064, 3-{4-[2-(5-methyl-2-phenyloxazol-4-yl)ethyloxy]-3-(naphthalen-2-yl)phenyl}propionic acid]",≥ 50
16,"COc1ccc2cc(-c3cc(CCC(=O)O)ccc3OCC3CCCCC3)ccc2c1 [Compound 068, 3-[4-cyclohexylmethyloxy-3-(6-methoxynaphthalen-2-yl)phenyl]propionic acid]",≥ 50
17,"O=C(O)CCc1ccc(OCC2CCCCC2)c(-c2cccc3ccccc23)c1 [Compound 070, 3-[4-cyclohexylmethyloxy-3-(naphthalen-1-yl)phenyl]propionic acid]",≥ 50
18,"O=C(O)CCc1ccc(OCC2CCCCC2)c(-c2ccc3cc(OCCO)ccc3c2)c1 [Compound 071, 3-{4-cyclohexylmethyloxy-3-[6-(2-hydroxyethyloxy)naphthalen-2-yl]phenyl}propionic acid]",≥ 50
19,"O=C(O)CCc1ccc(OCC2CCCCC2)c(-c2ccc3cc(OCC(=O)O)ccc3c2)c1 [Compound 072, 3-[3-(6-carboxymethyloxynaphthalen-2-yl)-4-cyclohexylmethyloxyphenyl]propionic acid]",≥ 50
20,"CN(C)C(=O)COc1ccc2cc(-c3cc(CCC(=O)O)ccc3OCC3CCCCC3)ccc2c1 [Compound 074, 3-{4-cyclohexylmethyloxy-3-[6-(N,N-dimethylcarbamoylmethyloxy)-naphthalen-2-yl]phenyl}propionic acid]",≥ 50
21,"CC(=O)Nc1ccc2cc(-c3cc(CCC(=O)O)ccc3OCC3CCCC3)ccc2c1 [Compound 077, 3-[3-(6-acetylaminonaphthalen-2-yl)-4-cyclopentylmethyloxy-phenyl]propionic acid]",≥ 50
22,"CS(=O)(=O)Nc1ccc2cc(-c3cc(CCC(=O)O)ccc3OCC3CCCC3)ccc2c1 [Compound 085, 3-[4-cyclopentylmethyloxy-3-(6-methanesulfonylaminonaphthalen-2-yl)phenyl]propionic acid]",≥ 50
23,"O=C(O)CCc1ccc(OCC2CCCC2)c(-c2ccc3ccc(NC(=O)c4ccco4)cc3c2)c1 [Compound 090, 3-(4-cyclopentylmethyloxy-3-{7-[(furan-2-carbonyl)amino]naphthalen-2-yl}phenyl)propionic acid]",≥ 50
24,"O=C(O)CCc1cc(Cl)c(OCC2CCCC2)c(-c2ccc3ccccc3c2)c1 [Compound 092, 3-[3-chloro-4-cyclopentylmethyloxy-5-(naphthalen-2-yl)phenyl]propionic acid]",≥ 50
25,"COC(=O)CCc1cc(N)c(OCC2CCCC2)c(-c2ccc3ccccc3c2)c1 [Compound 094, methyl 3-[3-amino-4-cyclopentylmethyloxy-5-(naphthalen-2-yl)phenyl]propionate]",≥ 50
26,"O=C(O)Cc1ccc(OCC2CCCCC2)c(-c2ccc3ccccc3c2)c1 [Compound 096, 4-cyclohexylmethyloxy-3-(naphthalen-2-yl)phenylacetic acid]",≥ 50
27,"Cc1c[nH]c2ccc(-c3cc(CCC(=O)O)ccc3OCC3CCCC3)cc12 [Compound 112, 3-[4-cyclopentylmethyloxy-3-(3-methyl-1H-indol-5-yl)phenyl]propionic acid]",≥ 50
28,"O=C(O)CCc1ccc(OC2CCCC2)c(-c2cccc3[nH]ccc23)c1 [Compound 118, 3-[4-cyclopentyloxy-3-(1H-indol-4-yl)phenyl]propionic acid]",≥ 50
29,"O=C(O)CCc1ccc(OC2CCCCC2)c(-c2cccc3[nH]ccc23)c1 [Compound 120, 3-[4-cyclohexyloxy-3-(1H-indol-4-yl)phenyl]propionic acid]",≥ 50
30,"Cn1ccc2c(-c3cc(CCC(=O)O)ccc3OCC3CCCC3)cccc21 [Compound 122, 3-[4-cyclopentylmethyloxy-3-(1-methyl-1H-indol-4-yl)phenyl]propionic acid]",≥ 50
